The source made the active and inactive calls.
What was measured:
Large T antigen = Large T antigen (Simian virus 40, UniProt P03070); assay type: functional, Betapolyomavirus macacae;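 note: Confirmatory-stage PubChem screen for compounds that inhibit SV40 T antigen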
[1] = microbe, parasite or virus in culture; assay type: functional; conditions: Mycobacterium tuberculosis
Hexokinase HKDC1 = molecular target: T1, Hexokinase HKDC1 (Homo sapiens, UniProt Q2TB90); assay: HKDC1 hexokinase inhibitors, dose response, biochemical, W721R variant (AID 504729); assay type: functional
T1 sequence (Q2TB90 whole entry): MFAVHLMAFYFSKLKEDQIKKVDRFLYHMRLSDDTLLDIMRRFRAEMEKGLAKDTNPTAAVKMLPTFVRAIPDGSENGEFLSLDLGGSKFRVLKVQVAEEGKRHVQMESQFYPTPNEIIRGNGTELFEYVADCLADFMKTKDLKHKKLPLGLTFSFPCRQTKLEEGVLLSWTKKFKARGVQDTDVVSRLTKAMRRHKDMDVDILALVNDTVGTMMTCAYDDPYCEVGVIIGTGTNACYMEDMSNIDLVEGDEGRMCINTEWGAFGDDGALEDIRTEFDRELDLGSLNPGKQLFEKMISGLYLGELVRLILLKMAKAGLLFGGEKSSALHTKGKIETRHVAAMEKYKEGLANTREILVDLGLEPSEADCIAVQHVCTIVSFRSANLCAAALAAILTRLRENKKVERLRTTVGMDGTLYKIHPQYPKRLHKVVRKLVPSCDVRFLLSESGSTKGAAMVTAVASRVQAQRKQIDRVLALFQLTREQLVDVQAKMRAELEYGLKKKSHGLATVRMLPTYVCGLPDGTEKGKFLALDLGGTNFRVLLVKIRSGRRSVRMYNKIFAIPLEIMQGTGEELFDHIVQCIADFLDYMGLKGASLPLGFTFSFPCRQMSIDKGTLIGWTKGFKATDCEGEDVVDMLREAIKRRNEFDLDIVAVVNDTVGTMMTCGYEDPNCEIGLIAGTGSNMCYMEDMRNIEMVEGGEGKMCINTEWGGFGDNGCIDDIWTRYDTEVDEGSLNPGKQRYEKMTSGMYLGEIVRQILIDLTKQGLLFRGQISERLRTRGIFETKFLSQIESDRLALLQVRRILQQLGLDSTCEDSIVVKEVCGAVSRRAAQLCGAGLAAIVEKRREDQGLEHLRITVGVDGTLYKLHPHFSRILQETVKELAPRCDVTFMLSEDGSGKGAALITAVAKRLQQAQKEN

Cysteine protease ATG4B = molecular target: T2, Cysteine protease ATG4B (Homo sapiens, UniProt Q9Y4P1); assay type: functional;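 note: Fluorescence-based dose-response confirmation assay measuring inhibition of ATG4B activity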
T2 sequence (Q9Y4P1 whole entry): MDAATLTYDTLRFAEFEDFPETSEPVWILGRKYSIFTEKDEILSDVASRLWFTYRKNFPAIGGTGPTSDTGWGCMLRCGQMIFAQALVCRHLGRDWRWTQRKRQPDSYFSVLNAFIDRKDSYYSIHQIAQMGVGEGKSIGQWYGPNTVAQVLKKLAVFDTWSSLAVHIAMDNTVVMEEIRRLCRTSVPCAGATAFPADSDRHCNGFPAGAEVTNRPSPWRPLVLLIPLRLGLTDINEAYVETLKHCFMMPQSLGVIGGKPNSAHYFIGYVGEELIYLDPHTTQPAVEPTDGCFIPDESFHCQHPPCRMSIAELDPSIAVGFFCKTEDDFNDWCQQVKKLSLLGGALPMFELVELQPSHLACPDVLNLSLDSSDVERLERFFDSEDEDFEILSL

CHO = assay: cytotoxicity in TLR9-MyD88 CHO cells, dose response, cytotoxicity control for TLR9-MyD88 binding inhibitor project, cell-based, luminescence (AID 588339); assay type: functional, hamster; conditions: Cricetulus griseus;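 note: CHO cells stably coexpressing TLR9 and MyD88 fusions from primary screen; compound exposure lasted 48 hours before viability readout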
Phospholipase A2 = Phospholipase A2 (Homo sapiens, UniProt P04054); assay type: functional;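 note: confirmatory dose-response counterscreen on phospholipase A2, testing hits that came from an ultra-high-throughput screen for ATG4B inhibitors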
Phospholipase A2, sequence (P04054 whole entry): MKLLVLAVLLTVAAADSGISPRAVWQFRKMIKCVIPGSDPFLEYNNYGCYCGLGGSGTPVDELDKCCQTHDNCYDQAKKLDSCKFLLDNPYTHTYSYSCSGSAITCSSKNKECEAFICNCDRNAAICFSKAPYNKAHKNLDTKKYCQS

[2] = molecular target: T3, Apoptotic protease-activating factor 1 (Homo sapiens, UniProt O14727); assay type: functional
T3 sequence (O14727 whole entry): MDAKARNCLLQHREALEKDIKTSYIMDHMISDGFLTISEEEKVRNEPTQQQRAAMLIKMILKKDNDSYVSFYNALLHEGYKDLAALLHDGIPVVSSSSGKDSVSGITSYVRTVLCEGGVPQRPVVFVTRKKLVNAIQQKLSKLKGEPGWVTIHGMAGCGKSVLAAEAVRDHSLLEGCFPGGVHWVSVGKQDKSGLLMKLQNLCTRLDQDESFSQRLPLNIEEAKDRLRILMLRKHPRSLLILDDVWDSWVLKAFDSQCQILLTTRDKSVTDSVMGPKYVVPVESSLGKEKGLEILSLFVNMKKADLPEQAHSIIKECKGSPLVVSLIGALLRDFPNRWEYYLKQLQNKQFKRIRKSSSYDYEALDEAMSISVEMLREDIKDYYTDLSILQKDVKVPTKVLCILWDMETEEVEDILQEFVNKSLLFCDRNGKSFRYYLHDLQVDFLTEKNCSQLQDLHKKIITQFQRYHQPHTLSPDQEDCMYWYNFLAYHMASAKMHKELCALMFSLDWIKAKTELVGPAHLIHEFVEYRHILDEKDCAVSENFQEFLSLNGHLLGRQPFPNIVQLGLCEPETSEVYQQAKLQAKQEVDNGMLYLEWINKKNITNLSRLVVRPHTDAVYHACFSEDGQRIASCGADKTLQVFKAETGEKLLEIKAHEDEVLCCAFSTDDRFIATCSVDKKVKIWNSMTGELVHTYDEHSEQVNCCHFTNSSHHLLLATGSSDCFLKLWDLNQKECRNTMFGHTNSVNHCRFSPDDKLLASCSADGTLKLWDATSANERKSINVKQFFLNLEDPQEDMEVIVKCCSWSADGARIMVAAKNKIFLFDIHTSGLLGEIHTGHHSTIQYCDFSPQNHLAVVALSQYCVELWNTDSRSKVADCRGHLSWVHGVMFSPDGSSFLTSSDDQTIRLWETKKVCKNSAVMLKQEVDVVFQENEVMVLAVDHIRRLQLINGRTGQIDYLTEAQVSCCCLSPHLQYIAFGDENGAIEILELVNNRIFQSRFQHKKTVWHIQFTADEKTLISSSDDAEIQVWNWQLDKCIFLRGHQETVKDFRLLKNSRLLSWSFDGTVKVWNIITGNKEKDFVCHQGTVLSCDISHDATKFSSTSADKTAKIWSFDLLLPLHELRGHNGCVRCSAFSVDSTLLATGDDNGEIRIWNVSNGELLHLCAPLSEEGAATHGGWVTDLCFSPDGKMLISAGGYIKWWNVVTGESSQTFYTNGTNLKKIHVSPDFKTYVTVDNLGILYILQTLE

Beta Lactamase = Beta Lactamase (Pseudomonas aeruginosa, UniProt Q932Y6); assay: beta-lactamase reporter inhibitor potency, dose response, artefact control for TLR9-MyD88 binding inhibitor project, BLA reporter cells, FRET fluorescence (AID 588341); assay type: cell-based;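 note: cell based assay in CHO-K1 cells stably expressing beta-lactamase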
[3] = HeLa cell cytotoxicity, dose response, cytotoxicity control for MgcRacGAP inhibitor project (AID 624300); assay type: functional
[4] = molecular target: T4, Rac GTPase-activating protein 1 (Homo sapiens, UniProt Q9H0H5); assay: MgcRacGAP GTPase-activating activity inhibitors, confirmation, biochemical, ADP Hunter fluorescence, primary and confirmatory (AID 624330); assay type: functional
T4 sequence (Q9H0H5 whole entry): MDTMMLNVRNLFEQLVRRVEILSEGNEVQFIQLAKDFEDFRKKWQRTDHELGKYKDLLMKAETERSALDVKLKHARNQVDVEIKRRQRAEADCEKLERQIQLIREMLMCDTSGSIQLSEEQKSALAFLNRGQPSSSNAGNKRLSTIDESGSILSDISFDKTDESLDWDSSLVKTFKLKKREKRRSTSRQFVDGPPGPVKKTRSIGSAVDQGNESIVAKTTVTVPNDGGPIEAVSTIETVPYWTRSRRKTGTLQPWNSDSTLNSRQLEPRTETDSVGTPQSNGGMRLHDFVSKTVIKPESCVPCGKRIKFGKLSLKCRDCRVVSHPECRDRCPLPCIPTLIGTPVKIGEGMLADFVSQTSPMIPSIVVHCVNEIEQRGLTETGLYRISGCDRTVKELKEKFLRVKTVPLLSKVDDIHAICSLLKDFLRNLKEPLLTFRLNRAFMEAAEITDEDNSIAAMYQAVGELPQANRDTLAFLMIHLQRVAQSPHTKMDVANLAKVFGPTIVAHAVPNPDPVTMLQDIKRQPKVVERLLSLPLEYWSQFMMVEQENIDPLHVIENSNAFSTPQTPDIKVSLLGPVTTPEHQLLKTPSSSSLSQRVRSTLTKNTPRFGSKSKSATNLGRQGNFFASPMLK

Cytochrome P450 2D6 = Cytochrome P450 2D6 (Homo sapiens, UniProt P10635);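 note: CYP2D6 member of a cytochrome P450 panel assay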
[5] = molecular target: Cyclin-dependent kinase 5/CDK5 activator 1 (Homo sapiens, UniProt Q00535); assay: CDK5/p35 kinase inhibitors, dose response, biochemical, cherry-picked samples, set 2 (AID 504545)
[6] = NIH-3T3 fibroblast cytotoxicity, dose response, cytotoxicity control, cell-based, fluorescence, Alamar Blue, secondary assay (AID 2327); assay type: functional;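 note: NIH-3T3 mouse fibroblasts cultured with fluconazole at 8 µg/mL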
[7] = molecular target: T5, Neuropeptide Y receptor type 1 (Homo sapiens, UniProt P25929); assay type: functional;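 note: HEK293 cells with a CNG channel challenged with NPY then isoproterenol; potency as antagonist that reverses NPY suppression of cAMP signal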
T5 sequence (P25929 whole entry): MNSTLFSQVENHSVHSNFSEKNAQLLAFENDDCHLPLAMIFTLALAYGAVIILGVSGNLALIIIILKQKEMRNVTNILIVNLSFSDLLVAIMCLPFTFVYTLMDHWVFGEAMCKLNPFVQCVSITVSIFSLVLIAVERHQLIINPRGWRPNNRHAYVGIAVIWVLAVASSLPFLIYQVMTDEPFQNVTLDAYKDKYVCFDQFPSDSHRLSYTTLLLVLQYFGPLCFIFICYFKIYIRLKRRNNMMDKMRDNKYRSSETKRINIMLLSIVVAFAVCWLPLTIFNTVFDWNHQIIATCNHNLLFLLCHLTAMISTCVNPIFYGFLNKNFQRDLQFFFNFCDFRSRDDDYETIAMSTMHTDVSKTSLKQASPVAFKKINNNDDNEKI

[8] = C. albicans growth with fluconazole, confirmation, fluorescence, retest (AID 2467); assay type: functional, cell-based
[9] = molecular target: T6, Neuropeptide Y receptor type 2 (Homo sapiens, UniProt P49146); assay type: functional, cell-based;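 note: HEK293 cells expressing the receptor and a CNG channel; stimulus was NPY near EC95 followed by isoproterenol to raise cAMP; antagonist potency measured as restoring cAMP signal that NPY suppresses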
T6 sequence (P49146 whole entry): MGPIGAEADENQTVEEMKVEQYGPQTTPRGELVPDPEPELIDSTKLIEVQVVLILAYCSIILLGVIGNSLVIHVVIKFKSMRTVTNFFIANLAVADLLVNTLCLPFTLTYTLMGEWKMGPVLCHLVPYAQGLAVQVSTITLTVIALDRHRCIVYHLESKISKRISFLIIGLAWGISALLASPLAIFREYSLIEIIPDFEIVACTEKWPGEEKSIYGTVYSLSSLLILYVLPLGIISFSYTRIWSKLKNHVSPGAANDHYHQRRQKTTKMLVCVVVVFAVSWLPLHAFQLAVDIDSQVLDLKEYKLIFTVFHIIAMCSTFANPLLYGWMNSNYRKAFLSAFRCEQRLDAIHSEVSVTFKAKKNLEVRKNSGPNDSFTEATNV

[10] = growth suppression of PTEN-null colon cells, dose response, cell-based, HCT116 PTEN knockout (AID 1047); assay type: functional;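 note: HCT116 colon tumor cells with PTEN knocked out; cells exposed to compound for 60 hours before readout; potency for loss of cell viability measured by luminescence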
[11] = growth suppression of beta-catenin-knockout colon cells, dose response, cell-based, HCT116, human colon tumor (AID 1045); assay type: functional;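 note: HCT116 colon tumor cells with beta catenin knocked out; cells exposed to compound for 60 hours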
[12] = molecular target: Neurotensin receptor type 1 (Homo sapiens, UniProt P30989); assay type: functional;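 note: Image-based confirmatory dose-response assay measuring agonist activity at NTR1; NTR1-expressing U2OS osteosarcoma cells imaged for beta-arrestin GFP spot formation; agonist potency where compounds increase beta-arrestin recruitment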
Neurotensin receptor type 1, sequence (P30989 whole entry): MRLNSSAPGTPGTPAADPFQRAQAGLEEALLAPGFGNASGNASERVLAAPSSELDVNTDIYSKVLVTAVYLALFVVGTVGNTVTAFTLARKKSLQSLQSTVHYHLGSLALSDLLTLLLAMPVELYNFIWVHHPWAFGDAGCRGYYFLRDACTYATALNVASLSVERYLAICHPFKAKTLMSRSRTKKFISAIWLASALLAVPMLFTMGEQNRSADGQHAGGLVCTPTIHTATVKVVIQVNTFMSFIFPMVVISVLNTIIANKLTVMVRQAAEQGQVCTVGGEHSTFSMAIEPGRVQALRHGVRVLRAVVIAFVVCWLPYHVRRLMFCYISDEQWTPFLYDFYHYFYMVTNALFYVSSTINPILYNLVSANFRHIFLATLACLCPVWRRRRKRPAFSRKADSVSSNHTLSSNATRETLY

Vero [13] = assay: cells; assay type: functional, cell-based; conditions: Chlorocebus sabaeus
Vero [14] = assay: cells; assay type: functional; conditions: Chlorocebus sabaeus
[15] = molecular target: Cystic fibrosis transmembrane conductance regulator/Golgi-associated PDZ and coiled-coil motif-containing protein (Homo sapiens, UniProt P13569+Q9HD26); assay: CAL PDZ peptide-binding inhibitors, dose response, biochemical, fluorescence polarization, Cerulean-tagged CAL PDZ, cherry-picks (AID 504773)
Cystic fibrosis transmembrane conductance regulator/Golgi-associated PDZ and coiled-coil motif-containing protein, sequence (P13569 whole entry, other chains not shown): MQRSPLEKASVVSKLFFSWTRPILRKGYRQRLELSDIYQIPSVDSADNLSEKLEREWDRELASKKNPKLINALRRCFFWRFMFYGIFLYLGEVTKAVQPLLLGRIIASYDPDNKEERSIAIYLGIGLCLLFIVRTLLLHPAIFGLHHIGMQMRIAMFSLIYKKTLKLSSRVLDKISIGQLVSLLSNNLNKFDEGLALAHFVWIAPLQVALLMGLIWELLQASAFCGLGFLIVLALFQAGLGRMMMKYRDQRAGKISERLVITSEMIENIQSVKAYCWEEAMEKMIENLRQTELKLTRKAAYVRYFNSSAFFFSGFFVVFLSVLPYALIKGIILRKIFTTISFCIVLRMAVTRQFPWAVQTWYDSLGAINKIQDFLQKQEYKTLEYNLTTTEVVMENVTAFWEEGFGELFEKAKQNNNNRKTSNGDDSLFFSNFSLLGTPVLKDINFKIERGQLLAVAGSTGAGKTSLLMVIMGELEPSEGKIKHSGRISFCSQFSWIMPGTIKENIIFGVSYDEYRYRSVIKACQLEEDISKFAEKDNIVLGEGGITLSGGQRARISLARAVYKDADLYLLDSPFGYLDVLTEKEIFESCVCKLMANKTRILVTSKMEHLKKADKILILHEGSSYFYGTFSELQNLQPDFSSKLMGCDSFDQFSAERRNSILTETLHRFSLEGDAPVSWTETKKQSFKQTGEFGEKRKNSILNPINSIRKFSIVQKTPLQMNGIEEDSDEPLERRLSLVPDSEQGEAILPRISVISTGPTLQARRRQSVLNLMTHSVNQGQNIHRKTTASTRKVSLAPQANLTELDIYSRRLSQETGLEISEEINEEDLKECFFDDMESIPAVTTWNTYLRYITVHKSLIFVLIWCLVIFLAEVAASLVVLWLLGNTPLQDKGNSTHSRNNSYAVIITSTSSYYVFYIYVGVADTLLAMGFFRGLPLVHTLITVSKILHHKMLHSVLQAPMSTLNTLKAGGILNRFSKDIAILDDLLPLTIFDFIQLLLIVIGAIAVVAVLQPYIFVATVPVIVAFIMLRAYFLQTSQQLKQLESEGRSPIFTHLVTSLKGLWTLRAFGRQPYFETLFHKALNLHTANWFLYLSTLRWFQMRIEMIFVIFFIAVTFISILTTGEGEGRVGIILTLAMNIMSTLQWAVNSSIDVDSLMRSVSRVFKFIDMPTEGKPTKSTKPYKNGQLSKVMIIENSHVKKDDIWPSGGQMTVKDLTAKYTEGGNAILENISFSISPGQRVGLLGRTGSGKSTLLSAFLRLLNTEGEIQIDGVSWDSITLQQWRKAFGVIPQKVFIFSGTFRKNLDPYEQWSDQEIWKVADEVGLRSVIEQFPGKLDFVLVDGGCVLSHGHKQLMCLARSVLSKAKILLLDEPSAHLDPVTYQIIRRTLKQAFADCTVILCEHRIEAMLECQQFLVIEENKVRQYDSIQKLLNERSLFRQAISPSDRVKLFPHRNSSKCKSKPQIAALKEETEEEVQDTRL

Wee1-like protein kinase = Wee1-like protein kinase (Homo sapiens, UniProt P30291); assay: G2/M cell cycle arrest in HeLa, late-stage follow-up, mechanism study for Wee1 degradation inhibitor project, FACS, panel member Wee1 Degradation (AID 2088)
[16] = molecular target: G2/mitotic-specific cyclin-B1 (Homo sapiens, UniProt P14635); assay: G2/M cell cycle arrest in HeLa, late-stage follow-up, mechanism study for Wee1 degradation inhibitor project, FACS, panel member Cyclin B Degradation (AID 2088)
G2/mitotic-specific cyclin-B1, sequence (P14635 whole entry): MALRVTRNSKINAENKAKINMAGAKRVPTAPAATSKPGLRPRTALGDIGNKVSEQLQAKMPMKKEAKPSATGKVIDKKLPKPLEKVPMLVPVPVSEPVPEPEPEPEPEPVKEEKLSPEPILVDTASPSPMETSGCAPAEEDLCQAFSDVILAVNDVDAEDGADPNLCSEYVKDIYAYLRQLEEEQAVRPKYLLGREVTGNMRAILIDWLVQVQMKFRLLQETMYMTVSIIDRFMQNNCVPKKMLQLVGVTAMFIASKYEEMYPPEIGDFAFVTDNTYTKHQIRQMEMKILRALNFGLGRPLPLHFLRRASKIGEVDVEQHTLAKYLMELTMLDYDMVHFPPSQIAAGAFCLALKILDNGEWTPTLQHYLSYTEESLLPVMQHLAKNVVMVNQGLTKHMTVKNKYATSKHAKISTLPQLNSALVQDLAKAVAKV

[17] = HEp-2 cell cytotoxicity, dose response, cytotoxicity control for RSV inhibitor project, HTS (AID 2410); assay type: functional; conditions: human respiratory syncytial virus
[18] = molecular target: T7, Voltage-dependent T-type calcium channel subunit alpha-1H (Homo sapiens, UniProt O95180); assay type: functional
T7 sequence (O95180 whole entry): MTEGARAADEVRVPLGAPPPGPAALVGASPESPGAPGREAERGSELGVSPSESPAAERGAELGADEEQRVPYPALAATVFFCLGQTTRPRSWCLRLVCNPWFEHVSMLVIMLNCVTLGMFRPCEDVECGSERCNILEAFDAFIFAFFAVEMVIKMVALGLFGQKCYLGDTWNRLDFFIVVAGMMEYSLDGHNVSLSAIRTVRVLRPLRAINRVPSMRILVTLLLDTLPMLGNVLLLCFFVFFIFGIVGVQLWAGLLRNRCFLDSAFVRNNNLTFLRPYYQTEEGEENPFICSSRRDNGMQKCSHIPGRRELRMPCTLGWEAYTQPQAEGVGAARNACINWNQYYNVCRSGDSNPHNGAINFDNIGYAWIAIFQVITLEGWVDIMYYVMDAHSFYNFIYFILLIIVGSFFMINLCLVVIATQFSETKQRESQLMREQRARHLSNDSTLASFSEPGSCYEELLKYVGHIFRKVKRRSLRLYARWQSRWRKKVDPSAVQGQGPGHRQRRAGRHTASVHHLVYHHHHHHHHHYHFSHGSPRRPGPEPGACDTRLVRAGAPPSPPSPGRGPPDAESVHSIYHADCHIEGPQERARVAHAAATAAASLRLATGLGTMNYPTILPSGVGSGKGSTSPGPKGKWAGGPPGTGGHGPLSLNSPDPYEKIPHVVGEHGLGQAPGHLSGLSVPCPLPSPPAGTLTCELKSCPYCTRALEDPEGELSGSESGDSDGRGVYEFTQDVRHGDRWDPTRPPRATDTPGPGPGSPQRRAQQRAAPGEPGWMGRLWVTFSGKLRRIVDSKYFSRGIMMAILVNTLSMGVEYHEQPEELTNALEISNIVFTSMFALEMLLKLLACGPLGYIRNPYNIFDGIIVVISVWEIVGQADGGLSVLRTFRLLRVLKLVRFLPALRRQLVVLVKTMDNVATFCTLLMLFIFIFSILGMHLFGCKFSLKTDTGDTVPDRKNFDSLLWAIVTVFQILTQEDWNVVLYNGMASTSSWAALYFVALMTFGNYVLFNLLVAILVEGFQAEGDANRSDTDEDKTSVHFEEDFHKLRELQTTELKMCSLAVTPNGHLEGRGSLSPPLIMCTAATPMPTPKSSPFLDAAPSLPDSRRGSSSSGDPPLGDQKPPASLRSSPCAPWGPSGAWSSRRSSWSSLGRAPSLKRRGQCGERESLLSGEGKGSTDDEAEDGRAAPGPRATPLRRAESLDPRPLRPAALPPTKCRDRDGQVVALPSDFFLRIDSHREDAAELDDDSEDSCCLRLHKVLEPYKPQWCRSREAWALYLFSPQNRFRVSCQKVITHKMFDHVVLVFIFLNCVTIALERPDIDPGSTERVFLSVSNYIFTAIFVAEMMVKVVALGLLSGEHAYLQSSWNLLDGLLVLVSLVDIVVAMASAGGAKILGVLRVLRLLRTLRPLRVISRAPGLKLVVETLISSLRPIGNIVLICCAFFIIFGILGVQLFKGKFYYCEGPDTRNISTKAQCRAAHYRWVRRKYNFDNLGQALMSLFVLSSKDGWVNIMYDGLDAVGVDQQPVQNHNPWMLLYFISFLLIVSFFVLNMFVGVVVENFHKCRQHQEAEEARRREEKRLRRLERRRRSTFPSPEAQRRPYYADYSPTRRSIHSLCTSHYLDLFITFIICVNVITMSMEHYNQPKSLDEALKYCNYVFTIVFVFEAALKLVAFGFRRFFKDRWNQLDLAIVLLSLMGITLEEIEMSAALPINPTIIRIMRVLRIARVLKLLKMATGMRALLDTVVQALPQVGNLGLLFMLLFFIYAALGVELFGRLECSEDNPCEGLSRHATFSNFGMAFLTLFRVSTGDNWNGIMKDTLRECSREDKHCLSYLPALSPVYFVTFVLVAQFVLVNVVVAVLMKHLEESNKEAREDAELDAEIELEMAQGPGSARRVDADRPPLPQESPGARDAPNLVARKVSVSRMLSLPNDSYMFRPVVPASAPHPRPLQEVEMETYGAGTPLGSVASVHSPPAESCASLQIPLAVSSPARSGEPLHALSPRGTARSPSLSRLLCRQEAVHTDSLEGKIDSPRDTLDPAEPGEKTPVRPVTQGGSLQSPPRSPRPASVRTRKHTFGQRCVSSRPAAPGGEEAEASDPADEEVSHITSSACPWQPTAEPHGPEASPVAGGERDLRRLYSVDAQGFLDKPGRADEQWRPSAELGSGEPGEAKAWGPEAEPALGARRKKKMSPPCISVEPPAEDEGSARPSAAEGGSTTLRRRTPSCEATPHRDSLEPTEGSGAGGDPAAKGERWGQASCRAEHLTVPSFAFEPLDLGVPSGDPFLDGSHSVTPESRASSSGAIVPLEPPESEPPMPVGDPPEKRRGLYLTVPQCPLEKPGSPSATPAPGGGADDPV

[19] = molecular target: T7, Voltage-dependent T-type calcium channel subunit alpha-1H; assay: Inhibitors of T-Type Calcium Channels. [Related pubchem assays (depositor defined):AID449739, AID463087, AID489005, AID493041, AID504579, AID504584, AID504619, AID504628]; assay type: functional

O=C1C(SCCO)=C(SCCO)C(=O)c2ccccc21
IC50 (Large T antigen): 26.6 µM (active)
CC50 [1]: 30.1 µM (active)
IC50 (Hexokinase HKDC1): 3.15 µM (active)
IC50 (Cysteine protease ATG4B): 12.8 µM (active)
IC50 (CHO): 0.479 µM (active)
IC50 (Phospholipase A2): 55.5 µM (inactive)
IC50 [2]: 12.7 µM (active)
IC50 (Beta Lactamase): 12.1 µM (inactive)
CC50 [3]: 24.5 µM (active)
IC50 [4]: 32.5 µM (active)
AC50 (Cytochrome P450 2D6): 31.6 µM (inconclusive)

COc1ccc(S(=O)(=O)Nc2c(C(=O)O)[nH]c3ccc(OC)cc23)c(OC)c1
AC50 [5]: 20.6 µM (active)

O=C(/C=C/c1cccc(Cl)c1)c1nc2ccccc2[nH]1
EC50 [6]: 67 µM (inconclusive)
IC50 [7]: 7.7 µM (active)
EC50 [8]: 2.34 µM (active)
IC50 [9]: 5.08 µM (active)
EC50 [10]: 2.16 µM (active)
EC50 [11]: 2.2 µM (active)
EC50 [12]: 25.8 µM (inactive)
IC50 (Vero [13]): > 25 µM (active)
CC50 (Vero [14]): 12.1 µM (active)

NS(=O)(=O)c1ccc(N2N=C(c3ccccc3)CC2c2ccccc2)cc1 (configuration not stated)
AC50 [15]: 66.6 µM (active)

COc1ccc(C)cc1NC(=O)CCCOc1cc(=O)n(C)c2ccccc12
EC50 (Wee1-like protein kinase): > 49.7 µM (inactive)
EC50 [16]: > 49.7 µM (inactive)

O=C(CN1CCC(n2nnc3cc(F)ccc32)CC1)Nc1ccc2c(c1)CCC2
CC50 [17]: > 50 µM (active)
EC50 [18]: 5.76 µM (active)
EC50 [19]: 6.67 µM (active)

Source: ChEMBL document CHEMBL1201862, “PubChem BioAssay data set” (2004)
